Measurements from patent US20240207396A1 (priority 2021, published 2024).

How the values were obtained:
C. albicans = type: in vivo; settings: immunocompromised mice; for Survival rate: 7 days after fatal dose of C. albicans by tail vein at week 8; for Survival number after 7 days: fatal dose of C. albicans by tail vein at week 8, 20 mice per group, fluconazole 50 mg/kg d intragastric for 7 days
[1] = test system: Th17 cells (cytokine IL-17F); settings: in words; after immunization vs. blank control group
Method: The effectiveness of the vaccine was studied by using an immunocompromised (neutropenia) mouse model. […] To investigate the T cell-mediated immune response, mouse blood was taken and detected for a change in cytokine IL-17F level in Th17 cells to evaluate the immunogenicity of chitosan oligosaccharide-carrier protein vaccine.
6-8-week-old Balb/c female mice were selected, and adaptively fed for 3-7 d. 20 g/L cyclophosphamide was prepared with normal saline, and the cyclophosphamide was injected intraperitoneally by body weight of 200 mg/kg. The number of neutrophils in the mouse blood was measured by a SYSMEX XT-2000i automatic blood analyzer after 3 days. If the number of the neutrophils was <500/mm^3, the experiment could be continued. After that, the cyclophosphamide was injected every 10 days at a dose of 150 mg/kg, which was maintained throughout the test period.
A normal saline blank control group, a KLH group, a chitosan oligosaccharide group, a chitosan oligosaccharide-KLH group in Example 6, a fluconazole group (as a positive control of a challenge test) were set up, with 10 mice in each group. At weeks 0, 2, 4 and 6 at the start of the experiment, the mice were injected subcutaneously from multiple points on the neck and back, with an injection amount of 2.5 mg/kg. The normal saline blank group was injected with normal saline, and the fluconazole group was not injected. […]

Molecule	Survival rate (C. albicans)	Survival number after 7 days (C. albicans)	Change of proportion of intracellular IL-17F compared with blank control group [1]
keyhole limpet hemocyanin [KLH]	30%	6	increased to a certain extent
OC(Cn1cncn1)(Cn1cncn1)c1ccc(F)cc1F [Fluconazole, fluconazole, reference compound]	50%	10	
